# Assay results published in BindingDB's records for doi:10.1021/acs.jmedchem.9b01509 (University of Chemistry and Technology Prague, 2020).
# Molecular target: Sarcoplasmic/endoplasmic reticulum calcium ATPase 1 (Oryctolagus cuniculus, UniProt P04191)
# Experiment: Inhibition of rabbit SERCA1a preincubated for 10 mins followed by addition of ATP and measured after 10 mins by colorimetric method
# Sarcoplasmic/endoplasmic reticulum calcium ATPase 1, sequence (P04191 whole entry): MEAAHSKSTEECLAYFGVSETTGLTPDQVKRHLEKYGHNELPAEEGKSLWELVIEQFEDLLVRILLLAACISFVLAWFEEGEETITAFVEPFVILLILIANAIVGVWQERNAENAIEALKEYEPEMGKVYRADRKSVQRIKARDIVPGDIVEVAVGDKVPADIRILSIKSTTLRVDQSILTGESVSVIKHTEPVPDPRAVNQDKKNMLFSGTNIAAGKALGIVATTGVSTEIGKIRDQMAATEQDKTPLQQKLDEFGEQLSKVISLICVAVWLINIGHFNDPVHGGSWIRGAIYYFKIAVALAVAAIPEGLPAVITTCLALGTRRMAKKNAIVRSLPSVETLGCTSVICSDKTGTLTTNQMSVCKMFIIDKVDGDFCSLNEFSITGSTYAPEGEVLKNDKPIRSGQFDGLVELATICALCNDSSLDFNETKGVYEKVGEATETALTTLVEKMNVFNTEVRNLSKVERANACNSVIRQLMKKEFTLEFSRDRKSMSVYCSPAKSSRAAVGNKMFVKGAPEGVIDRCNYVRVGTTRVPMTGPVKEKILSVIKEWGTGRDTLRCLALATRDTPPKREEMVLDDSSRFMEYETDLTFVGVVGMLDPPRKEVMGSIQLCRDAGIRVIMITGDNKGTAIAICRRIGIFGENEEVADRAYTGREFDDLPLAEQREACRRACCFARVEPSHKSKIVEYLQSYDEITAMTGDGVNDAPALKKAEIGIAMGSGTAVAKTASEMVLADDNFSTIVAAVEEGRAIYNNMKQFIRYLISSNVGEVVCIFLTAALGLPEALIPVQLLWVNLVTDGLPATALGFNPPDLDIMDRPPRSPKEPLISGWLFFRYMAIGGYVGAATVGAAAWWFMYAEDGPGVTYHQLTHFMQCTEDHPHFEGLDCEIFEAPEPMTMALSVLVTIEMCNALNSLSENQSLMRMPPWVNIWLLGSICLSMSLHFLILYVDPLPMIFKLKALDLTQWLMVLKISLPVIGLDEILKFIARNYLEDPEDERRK
compound,measurement,value
CC[C@H](C)[C@H]1O[C@]2(CC[C@@H]1C)C[C@@H]1C[C@@H](C/C=C(\C)[C@@H](O[C@H]3C[C@H](OC)[C@@H](O[C@H]4C[C@H](OC)[C@@H](O)[C@H](C)O4)[C@H](C)O3)[C@@H](C)/C=C/C=C3\CO[C@@H]4[C@H](O)C(C)=C[C@@H](C(=O)O1)[C@]34O)O2 [ABAMECTIN],IC50,15 µM
